Assay results taken from patent US20240399142A1, “Methods Of Using Alternating Electric Fields And Checkpoint Inhibitors” (NOVOCURE GMBH, priority 2023, published 2024).

Test system: patients with metastatic NSCLC progressing on or after platinum therapy
Assay: LUNAR phase 3 randomized study: overall survival, progression-free survival, radiological response
Method: LUNAR was a prospective, phase 3, randomized, open-label, parallel study (EF-24; NCT02973789) of TTFields (150 kHz) therapy concomitant with standard-of-care systemic therapy (docetaxel or investigator's choice immune checkpoint inhibitor) in patients with metastatic NSCLC progressing on or after platinum therapy. LUNAR was conducted at 124 sites across 17 countries in North America, Europe, and Asia (Table Si) between February 2017 and November 2021.
Eligible participants were adults (≥22 years of age) with a histological or cytological diagnosis of metastatic NSCLC that had shown radiological progression while on or after platinum-based systemic therapy (prior ICI permitted). Other than maintenance therapy, the most recent systemic therapy administered for advanced NSCLC was platinum-therapy. […]
Eligible patients were randomly assigned 1:1 (within 28 days of providing informed consent) to receive TTFields therapy to the thorax concomitant with investigator's choice of standard therapy (an immune checkpoint inhibitor [nivolumab, pembrolizumab, or atezolizumab] or docetaxel). Randomization was determined centrally using variable blocked randomization and an IxRS system, and stratified by tumor histology, treatment (docetaxel or an immune checkpoint inhibitor), and region (North America, Western Europe/Israel, and Eastern Europe). […]

CC(=O)O[C@@]12CO[C@@H]1C[C@H](O)[C@@]1(C)C(=O)[C@H](O)C3=C(C)[C@@H](OC(=O)[C@H](O)[C@@H](NC(=O)OC(C)(C)C)c4ccccc4)C[C@@](O)([C@@H](OC(=O)c4ccccc4)[C@H]21)C3(C)C [Docetaxel, docetaxel]
one-year survival rate (docetaxel subgroup): 39.4% | median overall survival (subgroup receiving docetaxel): 8.9 months
